US9133162B2, “Substituted quinoline compounds and methods of use” (SUNSHINE LAKE PHARMA CO., LTD., priority 2011, dated 2015)
Entries after “also recorded” stand apart in the source; their conditions may differ.

Experiments:
c-Met (h) = c-Met (h) (Homo sapiens (Human), UniProt P08581); assay: c-Met (h) kinase assay (33P-ATP filter, Millipore); assay type: biochemical
KDR (h) (VEGF-R2(h)) = KDR (h) (VEGF-R2(h)) (Homo sapiens (Human), UniProt P35968); assay: KDR (h) (VEGF-R2(h)) kinase assay; assay type: biochemical
Sequence of KDR (h) (VEGF-R2(h)) (P35968 20-1356): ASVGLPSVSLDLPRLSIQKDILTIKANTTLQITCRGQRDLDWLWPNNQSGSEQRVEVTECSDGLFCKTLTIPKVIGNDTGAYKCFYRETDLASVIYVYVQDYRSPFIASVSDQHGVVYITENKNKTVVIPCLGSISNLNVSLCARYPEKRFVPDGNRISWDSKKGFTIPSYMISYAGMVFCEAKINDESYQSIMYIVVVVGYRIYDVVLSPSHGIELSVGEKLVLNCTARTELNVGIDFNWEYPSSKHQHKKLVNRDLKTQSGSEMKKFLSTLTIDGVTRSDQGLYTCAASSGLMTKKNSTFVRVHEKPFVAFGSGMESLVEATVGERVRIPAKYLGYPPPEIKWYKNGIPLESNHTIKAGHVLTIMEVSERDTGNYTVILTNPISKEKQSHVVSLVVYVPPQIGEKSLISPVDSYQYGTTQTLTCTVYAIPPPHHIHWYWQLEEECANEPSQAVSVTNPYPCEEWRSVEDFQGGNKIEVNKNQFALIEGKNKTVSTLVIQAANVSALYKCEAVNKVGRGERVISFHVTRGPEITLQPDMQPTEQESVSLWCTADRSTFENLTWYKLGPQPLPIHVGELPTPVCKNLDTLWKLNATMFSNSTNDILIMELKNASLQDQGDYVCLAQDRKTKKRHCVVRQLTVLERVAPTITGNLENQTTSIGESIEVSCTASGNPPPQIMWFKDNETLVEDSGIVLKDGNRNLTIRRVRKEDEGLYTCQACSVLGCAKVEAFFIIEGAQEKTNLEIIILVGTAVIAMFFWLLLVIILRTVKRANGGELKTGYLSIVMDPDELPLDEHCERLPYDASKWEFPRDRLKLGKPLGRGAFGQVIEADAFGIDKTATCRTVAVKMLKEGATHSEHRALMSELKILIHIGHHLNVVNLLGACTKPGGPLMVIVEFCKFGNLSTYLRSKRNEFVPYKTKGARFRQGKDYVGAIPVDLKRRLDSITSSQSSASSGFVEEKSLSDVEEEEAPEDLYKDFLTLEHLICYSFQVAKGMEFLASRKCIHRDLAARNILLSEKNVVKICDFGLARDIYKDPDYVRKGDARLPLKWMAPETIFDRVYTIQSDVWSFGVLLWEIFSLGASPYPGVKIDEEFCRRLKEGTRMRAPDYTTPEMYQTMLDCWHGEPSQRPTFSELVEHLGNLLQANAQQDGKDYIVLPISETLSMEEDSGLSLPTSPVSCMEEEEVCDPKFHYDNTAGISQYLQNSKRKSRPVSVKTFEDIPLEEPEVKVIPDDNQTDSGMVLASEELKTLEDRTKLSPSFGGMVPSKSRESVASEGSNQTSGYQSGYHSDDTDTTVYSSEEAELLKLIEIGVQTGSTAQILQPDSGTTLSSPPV
Experimental: Kinase assays can be performed by measurement of incorporation of —^33P ATP into immobilized myelin basic protein (MBP). High binding white 384 well plates (Greiner) are coated with MBP (Sigma #M-1891) by incubation of 60 μl/well of 20 μg/ml MBP in Tris-buffered saline (TBS; 50 mM Tris pH 8.0, 138 mM NaCl, 2.7 mM KCl) for 24 hours at 4° C. Plates are washed 3× with 100 μl TBS. Kinase reactions are carried out in a total volume of 34 μl in kinase buffer (5 mM Hepes pH 7.6, 15 mM NaCl, 0.01% bovine gamma globulin (Sigma #I-5506), 10 mM MgCl2, 1 mM DTT, 0.02% TritonX-100). Compound dilutions are performed in DMSO and added to assay wells to a final DMSO concentration of 1%. Each data point is measured in duplicate, and at least two duplicate assays are performed for each individual compound determination. Enzyme is added to final concentrations of 10 nM or 20 nM, for example. A mixture of unlabeled ATP and —^33P ATP is added to start the reaction (2×10^6 cpm of —^33P ATP per well (3000 Ci/mmole) and 10 μM unlabeled ATP, typically. The reactions are carried out for 1 hour at room temperature with shaking. Plates are washed 7× with TBS, followed by the addition of 50 μl/well scintillation fluid (Wallac). Plates are read using a Wallac Trilux counter. This is only one format of such assays; various other formats are possible, as known to one skilled in the art.
The above assay procedure can be used to determine the IC50 for inhibition and/or the inhibition constant, Ki. The IC50 is defined as the concentration of compound required to reduce the enzyme activity by 50% under the condition of the assay. The IC50 value is estimated by preparing a 10 point curve using a log dilution series (for example, a typical curve may be prepared using the following compound concentrations; 100 μM, 30 μM, 10 μM, 3 μM, 1 μM, 0.3 μM, 0.1 μM, 0.03 μM, 0.01 μM and […]).
The kinase assays described herein were performed at Millipore UK Ltd, Dundee Technology Park, Dundee DD2 1SW, UK
KDR (h) (VEGF-R2(h)) Assay […]

Axl (h) = Axl (h) (Homo sapiens (Human), UniProt P30530); assay: Axl (h) kinase assay; assay type: biochemical
Sequence of Axl (h) (P30530 26-894): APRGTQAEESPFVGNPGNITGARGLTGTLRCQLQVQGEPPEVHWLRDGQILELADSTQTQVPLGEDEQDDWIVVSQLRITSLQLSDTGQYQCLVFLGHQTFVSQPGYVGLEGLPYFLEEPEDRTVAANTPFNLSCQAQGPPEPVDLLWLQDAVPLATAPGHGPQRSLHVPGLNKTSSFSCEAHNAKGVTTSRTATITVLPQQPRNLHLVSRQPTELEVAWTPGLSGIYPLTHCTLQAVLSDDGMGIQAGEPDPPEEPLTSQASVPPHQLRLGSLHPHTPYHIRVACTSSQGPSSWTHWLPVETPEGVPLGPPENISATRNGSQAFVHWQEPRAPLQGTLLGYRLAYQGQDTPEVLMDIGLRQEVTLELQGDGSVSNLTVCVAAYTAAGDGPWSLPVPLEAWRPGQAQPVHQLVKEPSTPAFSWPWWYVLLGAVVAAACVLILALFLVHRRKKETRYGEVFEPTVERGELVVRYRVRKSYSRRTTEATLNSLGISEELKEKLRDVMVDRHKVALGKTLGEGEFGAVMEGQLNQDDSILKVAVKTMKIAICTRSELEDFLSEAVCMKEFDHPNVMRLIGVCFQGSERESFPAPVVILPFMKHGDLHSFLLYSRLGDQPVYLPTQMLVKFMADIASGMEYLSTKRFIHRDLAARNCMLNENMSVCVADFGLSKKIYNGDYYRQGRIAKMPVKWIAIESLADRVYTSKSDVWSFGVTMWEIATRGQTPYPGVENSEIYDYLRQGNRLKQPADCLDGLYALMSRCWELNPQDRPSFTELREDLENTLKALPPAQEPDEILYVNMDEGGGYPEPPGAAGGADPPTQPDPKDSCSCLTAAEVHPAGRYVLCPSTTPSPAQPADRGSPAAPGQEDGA
Experimental: Compound dilutions are performed in DMSO and added to assay wells to a final DMSO concentration of 1%. Each data point is measured in duplicate, and at least two duplicate assays are performed for each individual compound determination. Enzyme is added to final concentrations of 10 nM or 20 nM, for example.
The above assay procedure can be used to determine the IC50 for inhibition and/or the inhibition constant, Ki.
(specific activity approx. 500 cpm/pmol, concentration as required). The reaction is initiated by the addition of the MgATP mix. After incubation for 40 minutes at room temperature, the reaction is stopped by the addition of 3% phosphoric acid solution. 10 μL of the reaction is then spotted onto a P30 filtermat and washed three times for 5 minutes in 75 mM phosphoric acid and once in methanol prior to drying and scintillation counting.

c-Met = c-Met (Homo sapiens (Human), UniProt P08581); assay: cell-based
Sequence of c-Met (P08581 25-1390): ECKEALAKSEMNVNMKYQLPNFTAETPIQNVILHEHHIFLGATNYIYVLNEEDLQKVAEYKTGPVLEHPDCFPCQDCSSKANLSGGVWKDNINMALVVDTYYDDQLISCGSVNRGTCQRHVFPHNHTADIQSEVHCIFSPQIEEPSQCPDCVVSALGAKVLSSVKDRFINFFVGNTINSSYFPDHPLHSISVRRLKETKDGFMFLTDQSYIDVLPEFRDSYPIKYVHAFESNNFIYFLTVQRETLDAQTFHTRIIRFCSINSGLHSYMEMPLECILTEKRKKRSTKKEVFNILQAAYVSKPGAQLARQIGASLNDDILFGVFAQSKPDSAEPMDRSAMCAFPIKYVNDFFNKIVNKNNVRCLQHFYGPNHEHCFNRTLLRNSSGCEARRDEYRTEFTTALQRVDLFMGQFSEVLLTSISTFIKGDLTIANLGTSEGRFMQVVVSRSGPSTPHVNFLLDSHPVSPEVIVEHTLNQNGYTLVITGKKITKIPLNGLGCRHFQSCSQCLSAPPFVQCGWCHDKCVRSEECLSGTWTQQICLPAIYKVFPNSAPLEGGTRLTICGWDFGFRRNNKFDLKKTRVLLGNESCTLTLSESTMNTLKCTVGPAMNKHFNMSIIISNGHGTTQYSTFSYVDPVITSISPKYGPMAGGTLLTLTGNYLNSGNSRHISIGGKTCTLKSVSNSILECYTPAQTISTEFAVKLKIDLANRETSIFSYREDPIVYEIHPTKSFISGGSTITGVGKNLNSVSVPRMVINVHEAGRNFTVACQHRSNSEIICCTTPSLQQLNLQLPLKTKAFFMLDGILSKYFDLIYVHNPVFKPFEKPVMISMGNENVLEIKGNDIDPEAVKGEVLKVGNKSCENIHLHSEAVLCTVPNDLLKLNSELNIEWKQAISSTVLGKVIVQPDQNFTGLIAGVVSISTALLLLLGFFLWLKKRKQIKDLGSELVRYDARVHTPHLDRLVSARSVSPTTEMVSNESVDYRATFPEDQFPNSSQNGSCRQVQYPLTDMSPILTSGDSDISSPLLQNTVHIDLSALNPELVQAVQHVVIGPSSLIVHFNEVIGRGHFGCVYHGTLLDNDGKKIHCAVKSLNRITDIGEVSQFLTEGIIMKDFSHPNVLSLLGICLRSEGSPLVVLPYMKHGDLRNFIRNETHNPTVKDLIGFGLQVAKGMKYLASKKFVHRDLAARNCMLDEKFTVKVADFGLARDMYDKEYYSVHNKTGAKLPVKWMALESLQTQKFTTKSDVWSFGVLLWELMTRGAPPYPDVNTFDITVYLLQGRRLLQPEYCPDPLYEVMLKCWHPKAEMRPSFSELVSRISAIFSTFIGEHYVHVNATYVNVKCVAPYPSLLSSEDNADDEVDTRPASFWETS
Experimental: The autophosphorylation level was determined Sandwich-ELISA technique. IC50 values are determined by testing 8 compound concentrations in semi-logarithmic steps (each concentration in duplicates). The steps of the cellular phosphorylation assay are illustrated in FIG. 1.
c-Met Phosphorylation Assay:
The human gastric adenocarcinoma cell line MKN45 is known to overexpress c-Met. c-Met overexpression results in a constitutive, ligand-independent autophosphorylation of the kinase. […] Phospho-MET signal is subsequently quantified by Sandwich-ELISA technique. The assay is validated based on known inhibitors of MET kinase activity.

human VEGF-R2 = human VEGF-R2 (Homo sapiens (Human), UniProt P35968); assay: VEGF-R2 cellular phosphorylation assay in HUE cells (Sandwich-ELISA); assay type: cell-based; conditions: VEGF-A stimulated
Sequence of human VEGF-R2 (P35968 20-1356): as the sequence (P35968 20-1356) above
Experimental: (§1) The autophosphorylation level was determined Sandwich-ELISA technique.
VEGF-R2 Phosphorylation Assay:
Immortalized human umbilical vein endothelial cells (HUE) are known to overexpress human VEGF-R2. Stimulation of these cells with its physiological ligand VEGF-A results in a robust receptor autophosphorylation. Compounds are preincubated before cell stimulation to allow thorough target binding. Stimulation conditions are optimized to determine dose-related inhibition of the phospho-VEGF-R2 signal, which is subsequently quantified by Sandwich-ELISA technique. The assay is validated based on known inhibitors of VEGF-R2 kinase activity.

AXL = AXL (Homo sapiens (Human), UniProt P30530); assay: Axl cellular phosphorylation assay in transfected MEF cells (Sandwich-ELISA); assay type: cell-based; conditions: MEF cells expressing full-length AXL
Sequence of AXL (P30530 26-894): as the sequence (P30530 26-894) above
Experimental: as §1
Axl Phosphorylation Assay:
Cellular AXL phosphorylation assay was generated on a mouse embryonal fibroblast (MEF) background. Cells were transfected to express a full-length AXL protein. […] PhosphoAXL levels are quantified by Sandwich-ELISA technique.

[1] = system: MKN45 Gastric Adenocarcinoma cells; assay: MKN45 tumor xenograft model, TGI; assay type: in vivo, athymic nude mice; conditions: 20 mg/kg p.o. QD, 16 days
Experimental: (§2) The efficacy of compounds disclosed herein was evaluated in a standard murine model of tumorigenesis. Human tumor cells (U87MG glioblastoma cells, MKN45 Gastric Adenocarcinoma cells, Caki-1 renal carcinoma cells, HUH 7 hepatocarcinoma cells, NCI-H441 lung adenocarcinoma epithelial cells, MDA-MB-231 breast adenocarcinoma cells, SMMC-7721 hepatoma cells, all from ATCC) were expended in culture, harvested, and injected subcutaneously onto the rear flank of 6-7 week old female athymic nude mice (BALB/cA nu/nu, Shanghai SLAC Laboratory Animal, Co.) (n=10 for vehicle group, n=8 for each dosing group). When tumors reached a volume of 100-250 mm^3, animals were randomly divided into vehicle control (for example, 2% HPMC+1% Tween-80 in water) and compound groups. […]
(§3) Progression of tumor growth is assessed by tumor volumes and recorded as a function of time. The long (L) and short (W) axes of the subcutaneous tumors were measured with calipers twice weekly, and the tumor volume (TV) calculated as (L×W^2)/2). TGI was calculated from the difference between the median tumor volumes of vehicle-treated and drug-treated mice, expressed as a percentage of the median tumor volume of the vehicle-treated control group, by the following relation: […]

[2] = system: Caki-1 renal carcinoma cells; assay: Caki-1 tumor xenograft model, TGI; assay type: in vivo, athymic nude mice; conditions: 20 mg/kg p.o. QD, 21 days
Experimental: as §2, §3

[3] = system: NCI-H441 lung adenocarcinoma epithelial cells; assay: NCI-H441 tumor xenograft model, TGI; assay type: in vivo, athymic nude mice; conditions: 20 mg/kg p.o. QD, 21 days
Experimental: as §2, §3

[4] = system: HUH 7 hepatocarcinoma cells; assay: Huh-7 tumor xenograft model, TGI; assay type: in vivo, athymic nude mice; conditions: 20 mg/kg p.o. QD, 14 days
Experimental: as §2, §3

U87MG glioblastoma cells = assay: U87MG tumor xenograft model, TGI; assay type: in vivo, athymic nude mice; conditions: 10 mg/kg p.o. QD, 16 days
Experimental: as §2, §3

[5] = system: MDA-MB-231 breast adenocarcinoma cells; assay: MDA-MB-231 tumor xenograft model, TGI; assay type: in vivo, athymic nude mice; conditions: for TGI % (on last day of dosing) MDA-MB-231: 21 days (Day 21); for inhibition of growth of MDA-MB-231 xenograft tumors (in words): 10, 20 and 40 mg/kg p.o. QD, 21 days
Experimental: The efficacy of compounds disclosed herein was evaluated in a standard murine model of tumorigenesis. Human tumor cells (U87MG glioblastoma cells, MKN45 Gastric Adenocarcinoma cells, Caki-1 renal carcinoma cells, HUH 7 hepatocarcinoma cells, NCI-H441 lung adenocarcinoma epithelial cells, MDA-MB-231 breast adenocarcinoma cells, SMMC-7721 hepatoma cells, all from ATCC) were expended in culture, harvested, and injected subcutaneously onto the rear flank of 6-7 week old female athymic nude mice (BALB/cA nu/nu, Shanghai SLAC Laboratory Animal, Co.) (n=10 for vehicle group, n=8 for each dosing group). When tumors reached a volume of 100-250 mm^3, animals were randomly divided into vehicle control (for example, 2% HPMC+1% Tween-80 in water) and compound groups. Subsequent administration of compound by oral gavage (for example, 3-50 mpk/dose, dissolved in 2% HPMC+1% Tween-80 in water) begins anywhere from day 0 to day 15 post tumor cell challenge and generally continues with once a day for the duration of the experiment. The studies using tumor xenograft animal models described herein were performed at Shanghai Institute of Materia Medica, Chinese Academy of Sciences, 555 Zu Chong Zhi Road, Zhang Jiang Hi-Tech Park, Pudong, Shanghai, 201203, China.
Progression of tumor growth is assessed by tumor volumes and recorded as a function of time. The long (L) and short (W) axes of the subcutaneous tumors were measured with calipers twice weekly, and the tumor volume (TV) calculated as (L×W^2)/2). TGI was calculated from the difference between the median tumor volumes of vehicle-treated and drug-treated mice, expressed as a percentage of the median tumor volume of the vehicle-treated control group, by the following relation:
Initial statistical analysis is done by repeated measures analysis of variance (RMANOVA). Followed by Scheffe psot hoc testing for multiple comparisons. Vehicle alone (2% HPMC+1% Tween-80, or the like) is the negative control.
FIG. 2 illustrates the tumor growth inhibition effects of Example 1 in MDA-MB-231 breast adenocarcinoma model. Example 1 was administrated orally (p.o.) at doses of 10, 20 and 40 mg/kg once a day (QD), for 21 consecutive days.
FIG. 3 illustrates the tumor growth inhibition effects of Example 2 in MDA-MB-231 breast adenocarcinoma model. Example 2 was administrated orally (p.o.) at doses of 10, 20 and 40 mg/kg once a day (QD), for 21 consecutive days.

Sequence of c-Met (h) (P08581 25-1390): as the sequence (P08581 25-1390) above

Cc1c(C(=O)Nc2ccc(Oc3ccnc4cc(OC[C@H](C)O)ccc34)cc2)c(=O)n(-c2ccccc2)n1C [Example 12, (S)—N-(4-((7-(2-hydroxypropoxy)quinolin-4-yl)oxy)phenyl)-1,5-dimethyl-3-oxo-2-phenyl-2,3-dihydro-1H-pyrazole-4-carboxamide]
IC50 (c-Met (h)): 13 nM

Cc1c(C(=O)Nc2ccc(Oc3ccnc4cc(OC[C@@H](C)O)ccc34)cc2)c(=O)n(-c2ccccc2)n1C [Example 11, (R)—N-(4-((7-(2-hydroxypropoxy)quinolin-4-yl)oxy)phenyl)-1,5-dimethyl-3-oxo-2-phenyl-2,3-dihydro-1H-pyrazole-4-carboxamide]
IC50 (c-Met (h)): 15 nM

Cc1c(C(=O)Nc2ccc(Oc3ccnc4cc(OC(C)(C)CO)ccc34)c(F)c2)c(=O)n(-c2ccccc2)n1C [Example 14, N-(3-fluoro-4-((7-((1-hydroxy-2-methylpropan-2-yl)oxy)quinolin-4-yl)oxy)phenyl)-1,5-dimethyl-3-oxo-2-phenyl-2,3-dihydro-1H-pyrazole-4-carboxamide]
IC50 (c-Met (h)): 27 nM

Cc1c(C(=O)Nc2ccc(Oc3ccnc4cc(OCC(C)(C)O)ccc34)c(F)c2)c(=O)n(-c2ccccc2)n1C [Example 1, N-(3-fluoro-4-((7-(2-hydroxy-2-methylpropoxy)quinolin-4-yl)oxy)phenyl)-1,5-dimethyl-3-oxo-2-phenyl-2,3-dihydro-1H-pyrazole-4-carboxamide]
IC50 (c-Met (h)): 19 nM | IC50 (KDR (h) (VEGF-R2(h))): 37 nM | IC50 (Axl (h)): 11 nM | IC50 (c-Met): 6.9 nM | IC50 (human VEGF-R2): 1.7 nM | IC50 (AXL): < 1 nM | TGI % (on last day of dosing) MKN45 [1]: 97% | TGI % (on last day of dosing) Caki-1 [2]: 87% | TGI % (on last day of dosing) NCI-H441 [3]: 97% | TGI % (on last day of dosing) Huh-7 [4]: 53% | TGI % (on last day of dosing) U87MG (U87MG glioblastoma cells): 98% | TGI % (on last day of dosing) MDA-MB-231 ([5]; 10 mg/kg p.o. QD): 97% | TGI % (on last day of dosing) MDA-MB-231 ([5]; 20 mg/kg p.o. QD): 112% | TGI % (on last day of dosing) MDA-MB-231 ([5]; 40 mg/kg p.o. QD): 120% | inhibition of growth of MDA-MB-231 xenograft tumors (in words) [5]: inhibited the growth; also recorded: statistically significant, dose-dependent inhibition

Cc1c(C(=O)Nc2ccc(Oc3ccnc4cc(OC[C@@H](C)O)ccc34)c(F)c2)c(=O)n(-c2ccccc2)n1C [Example 2, (R)—N-(3-fluoro-4-((7-(2-hydroxypropoxy)quinolin-4-yl)oxy)phenyl)-1,5-dimethyl-3-oxo-2-phenyl-2,3-dihydro-1H-pyrazole-4-carboxamide]
IC50 (c-Met (h)): 7 nM | IC50 (KDR (h) (VEGF-R2(h))): 23 nM | TGI % (on last day of dosing) MKN45 [1]: 22% | TGI % (on last day of dosing) MDA-MB-231 ([5]; 10 mg/kg p.o. QD): 72% | TGI % (on last day of dosing) MDA-MB-231 ([5]; 20 mg/kg p.o. QD): 87% | TGI % (on last day of dosing) MDA-MB-231 ([5]; 40 mg/kg p.o. QD): 96% | inhibition of growth of MDA-MB-231 xenograft tumors (in words) [5]: inhibited the growth; also recorded: statistically significant, dose-dependent inhibition

COc1cc2c(Oc3ccc(NC(=O)c4c(C)n(C)n(-c5ccccc5)c4=O)cc3F)ccnc2cc1OCC(C)(C)O [Example 4, N-(3-fluoro-4-((7-(2-hydroxy-2-methylpropoxy)-6-methoxyquinolin-4-yl)oxy)phenyl)-1,5-dimethyl-3-oxo-2-phenyl-2,3-dihydro-1H-pyrazole-4-carboxamide]
IC50 (c-Met (h)): 10 nM | IC50 (KDR (h) (VEGF-R2(h))): 40 nM

Cc1c(C(=O)Nc2ccc(Oc3ccnc4cc(OCC(C)(C)O)ccc34)cc2)c(=O)n(-c2ccccc2)n1C [Example 9, N-(4-((7-(2-hydroxy-2-methylpropoxy)quinolin-4-yl)oxy)phenyl)-1,5-dimethyl-3-oxo-2-phenyl-2,3-dihydro-1H-pyrazole-4-carboxamide]
IC50 (c-Met (h)): 13 nM | TGI % (on last day of dosing) U87MG (U87MG glioblastoma cells): 97%
